These are literature values, as cited in US20260069653A1, “COMPLEMENT INHIBITOR DOSING REGIMENS” (Apellis Pharmaceuticals, Inc., priority 2021, published 2026).

Square brackets hold non-standard residues; d marks the D form. Trp(5-F) = N[C@@H](Cc1c[nH]c2ccc(F)cc12)C(=O)O; Trp(5-Me) = Cc1ccc2[nH]cc(C[C@H](N)C(=O)O)c2c1; Trp(6-F) = N[C@@H](Cc1c[nH]c2cc(F)ccc12)C(=O)O; Bpa = N[C@@H](Cc1ccc(C(=O)c2ccccc2)cc1)C(=O)O; 1Nal = N[C@@H](Cc1cccc2ccccc12)C(=O)O; 2Nal = N[C@@H](Cc1ccc2ccccc2c1)C(=O)O; Igl = N[C@H](C(=O)O)C1Cc2ccccc2C1

The subject of the data set is complement activation. The note with it: fold more active than compstatin amidated at the C-terminus; published data and assays; cited from earlier work.

On to “Ac-ICV(1-Nal)QDWGAHRCT-COOH (Ac-ICV[1Nal]QDWGAHRCT-OH; not fully specified (bridges); printed as Ac-ICV(1-Nal)QDWGAHRCT-COOH; cysteine pairing not given here) [Ac V4(1-Nal)/H9A-OH]”, for which the Activity over compstatin is recorded as 30x.
With “Ac-ICV(2-Igl)QDWGAHRCT-CONH2 (Ac-ICV[Igl]QDWGAHRCT-NH2; not fully specified (bridges); printed as Ac-ICV(2-Igl)QDWGAHRCT-CONH2; cysteine pairing not given here) [Ac-V42Igl/H9A]”, the Activity over compstatin is given as 39x.
Take “Ac-ICV(2-Igl)QDWGAHRCT-COOH (Ac-ICV[Igl]QDWGAHRCT-OH; not fully specified (bridges); printed as Ac-ICV(2-Igl)QDWGAHRCT-COOH; cysteine pairing not given here) [Ac-V42Igl/H9A-OH]”: the Activity over compstatin is recorded as 37x.
For the substance “Ac-ICV(2-Nal)QDWGAHRCT-CONH2 (Ac-ICV[2Nal]QDWGAHRCT-NH2; not fully specified (bridges); printed as Ac-ICV(2-Nal)QDWGAHRCT-CONH2; cysteine pairing not given here) [Ac-V4(2-Nal)/H9A]”, the Activity over compstatin is 99x.
Take “Ac-ICV(5-methyl-W)QDWGAHRCT-CONH2 (Ac-ICV[Trp(5-Me)]QDWGAHRCT-NH2; not fully specified (bridges); printed as Ac-ICV(5-methyl-W)QDWGAHRCT-CONH2; cysteine pairing not given here) [Ac-V4(5-MeW)/H9A]”: the Activity over compstatin is 67x.
Consider “Ac-ICV(5fW)QDWGAHRCT-CONH2 (Ac-ICV[Trp(5-F)]QDWGAHRCT-NH2; not fully specified (bridges); printed as Ac-ICV(5fW)QDWGAHRCT-CONH2; cysteine pairing not given here) [Ac-V4(5fW)/H9A]”, for which the Activity over compstatin is recorded as 31x.
For “Ac-ICV(Bpa)QDWGAHRCT-CONH2 (Ac-ICV[Bpa]QDWGAHRCT-NH2; not fully specified (bridges); printed as Ac-ICV(Bpa)QDWGAHRCT-CONH2; cysteine pairing not given here) [Ac-V4(Bpa)/H9A]”, the Activity over compstatin was 86x.
With “Ac-ICV(Bpa)QDWGAHRCT-COOH (Ac-ICV[Bpa]QDWGAHRCT-OH; not fully specified (bridges); printed as Ac-ICV(Bpa)QDWGAHRCT-COOH; cysteine pairing not given here) [Ac-V4(Bpa)/H9A-OH]”, the Activity over compstatin was 49x.
Ac-ICVVQDWGHHRCT-CONH2 [Ac-compstatin]: the Activity over compstatin was 3x.
Turning to “Ac-ICVWQD(5fW)GAHRCT-CONH2 (Ac-ICVWQD[Trp(5-F)]GAHRCT-NH2; not fully specified (bridges); printed as Ac-ICVWQD(5fW)GAHRCT-CONH2; cysteine pairing not given here) [Ac-V4W/W7(5fW)/H9A]”, the Activity over compstatin is 121x.
Regarding “Ac-ICVWQDWGAHRCT-CONH2 (Ac-ICVWQDWGAHRCT-NH2; not fully specified (bridges); printed as Ac-ICVWQDWGAHRCT-CONH2; cysteine pairing not given here) [Ac-V4W/H9A]”, the Activity over compstatin is given as 45x.
Consider “Ac-ICVWQDWGAHRCdT-COOH [Ac-V4W/H9A/T13dT-OH]”, for which the Activity over compstatin is given as 55x.
Take Ac-ICVYQDWGAHRCT-CONH2 [Ac-V4Y/H9A]: the Activity over compstatin is listed as 14x.
Consider “Ac-ICV[(2-Nal)QDWGAHRCT-COOH (Ac-ICV[2Nal]QDWGAHRCT-OH; not fully specified (bridges); printed as Ac-ICV[(2-Nal)QDWGAHRCT-COOH; cysteine pairing not given here) [Ac V4(2-Nal)/H9A-OH]”, for which the Activity over compstatin is listed as 38x.
Regarding “H-GICV(5fW)QD(5fW)GAHRCTN-COOH (H-GICV[Trp(5-F)]QD[Trp(5-F)]GAHRCTN-OH; not fully specified (bridges); cysteine pairing not given here) [G/V4(5f-WV)/WV7(5fW)/H9A+N-OH]”, the Activity over compstatin was 112x.
Turning to “H-GICV(6fW)QD(6fW)GAHRCTN-COOH (H-GICV[Trp(6-F)]QD[Trp(6-F)]GAHRCTN-OH; not fully specified (bridges); cysteine pairing not given here) [+G/V4(6fW)/W7(6fW)H9A+N-OH]”, the Activity over compstatin is on record as 126x.
